# Read-outs that look alike come from different tables or passages of the source.
# Assays:
# [1] = tested on: K. pneumoniae expressing the Class A carbapenemase KPC-2; assay: Broth microdilution MIC assay with meropenem, K. pneumoniae KPC-2; type: cell-based; conditions: for MIC (μg/mL) of Exemplary Compounds in presence of fixed β-lactams: K. p. 156319 KPC-3: Fixed Mero (meropenem) 4 μg/mL
# Text: (§1) To determine the ability of test compounds to potentiate the inhibition of the growth of bacterial strains that produce beta-lactamase enzymes in the presence of a β-lactam antibiotic, classic cell based broth microdilution MIC assays were employed. Six bacteria strains producing beta-lactamase enzymes were used: E. coli expressing the Class A Extended Spectrum Beta-Lactamase (ESBL) CTX-M-15, E. cloacae expressing the Class C P99, K. pneumoniae expressing the Class A carbapenemase KPC-2, P. aeruginosa expressing the Class B carbapenemase VIM-2, K. pneumoniae expressing the class A carbapenemase KPC-2 and the class B carbapenemase VIM-4, and K. pneumoniae producing the Class D carbapenemase OXA-48. The assay was conducted in Cation Adjusted Mueller Hinton Broth (CAMHB, BD #212322, BD Diagnostic Systems, Sparks, Md.). Bacteria strains were grown for 3-5 hours in CAMBH broth. Test compounds (Examples 1-94) were added to a microtiter plate in 2-fold serial dilutions in CAMHB in a final concentration range of 16 μg/mL to 0.125 μg/ml. An overlay of CAMHB containing a Beta-lactam was added to the compounds at a final static concentration of 4 μg/ml. […] In addition to the titration of test compounds the MICs of a panel of control beta-lactams is also tested to ensure the strains are behaving consistently from test to test. Once the test compound and antibiotics are added the plates can be inoculated according to CLSI broth microdilution method. After inoculation the plates are incubated for 16-20 hours at 37° C. then the Minimal Inhibitory Concentration (MIC) of the test compound is determined visually.
# (§2) Using the methodology described above, examples of the current invention were evaluated for their ability to inhibit the growth of β-lactamase-producing bacteria in the presence of a β-lactam antibiotic.
# [2] = biological target: T1, SHV-5 (Klebsiella pneumoniae, UniProt P0A3M1); assay: β-lactamase enzyme inhibition assay, SHV-5 (cefotaxime substrate); type: biochemical
# T1 construct: made in house; host or cells: E. coli BL21(DE3)
# T1 sequence (P0A3M1 22-286): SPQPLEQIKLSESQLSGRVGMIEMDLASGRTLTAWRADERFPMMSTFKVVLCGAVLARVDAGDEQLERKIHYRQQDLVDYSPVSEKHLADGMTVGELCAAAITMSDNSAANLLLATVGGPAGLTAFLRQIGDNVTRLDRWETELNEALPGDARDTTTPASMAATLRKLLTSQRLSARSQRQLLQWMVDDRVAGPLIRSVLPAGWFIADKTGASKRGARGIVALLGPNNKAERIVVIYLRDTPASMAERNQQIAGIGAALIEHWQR
# Description: (§3) For SHV-5, Kpc-2, p99AmpC and OXA-1 β-lactamases, E. coli BL21(DE3) bacterial cells carrying expression plasmids (expressed as native untagged proteins) for the individual β-lactamases were grown in 1 L of Superbroth (Teknova Inc. Hollister, Calif.) supplemented with 100 μg/ml kanamycin selection and 1×5052 (0.5% glycerol, 0.05% glucose and 0.2% α-lactose) at 35° C. for 18-20 hours. Cells were harvested by centrifugation (4,000×g, 4° C., 20 min), resuspended in 50 ml of 10 mM HEPES pH 7.5 ( 1/20 of the initial volume). The cells were lysed by sonication (5 pulses of 45 seconds) at 45 W on ice. The lysates were clarified by centrifugation at 10,000×g for 40 minutes at 4° C. Samples were diluted 5-fold in 50 mM sodium acetate pH 5.0, stored overnight at 4° C., after which they were centrifuged at 10,000×g for 30 minutes to clarify, and filtered through 0.45 μm filters. The samples were loaded onto a 5 ml Capto S sepharose cation exchange column (GE Healthcare) pre-equilibrated with 50 mM sodium acetate pH 5.0. The column was washed with 5 column volumes of 50 mM sodium acetate pH 5.0 to wash out unbound protein and a linear gradient of NaCl (0 to 500 mM) was used to elute the protein (over 16 CV) from the column. Fractions were assayed for β-lactamase activity using Centa (Calbiochem, Gibbstown, N.J.) or Nitrocefin (EMD Millipore chemicals, Darmstadt, Germany) as a reporter β-lactamase substrate for activity in the isolated fractions. Active fractions were pooled, concentrated and further purified by gel filtration chromatography on a Superdex 75 prep grade gel filtration column (GE Healthcare, Piscataway, N.J.) pre-equilibrated in 50 mM Hepes pH 7.5, 150 mM NaCl. Active fractions were pooled concentrated, quantitated by BCA protein determination (Thermo Scientific, Rockford, Ill.), dialyzed into PBS and frozen at −80° C. in 20% glycerol until use.
# (§4) An equal volume of diluted enzyme stock was added, and the plates were incubated at 37° C. for 15 min. Nitrocefin was used as substrate for p99 AmpC, VIM-2 and OXA-1 and dispensed into each well at a final concentration of 100 μM. Absorbance at 486 nm was immediately monitored for 10 min using a Biotek Powerwave XS2 microplate spectrophotometer using the GEN5 software package (Biotek Instruments, Winooski Vt.). In an analogous fashion, imipenem was used as substrate for Kpc-2 and Cefotaxime was used for SHV-5, while changes in absorbance upon hydrolysis of the β-lactam ring were monitored at 300 nm and 260 nm respectively in UV-transparent 96-well microtiter assay plates. Maximum rates of hydrolysis were compared to those in control wells (without inhibitors), and percentages of enzyme inhibition were calculated for each concentration of inhibitor. The concentration of inhibitor needed to reduce the initial rate of hydrolysis of substrate by 50% (IC50) was calculated as the residual activity of β-lactamase at 486 nm using GraFit version 7 kinetics software package (Erithacus Software, Surrey, UK).
# (§5) Using the methodology described above, examples of the current invention were evaluated for their ability to inhibit β-lactamase enzymes from all four Ambler classifications (A through D). […] NT=Not tested.
# [3] = biological target: T2, VIM-2 (Escherichia coli, UniProt Q5U7L7); assay: β-lactamase enzyme inhibition assay, VIM-2 (nitrocefin substrate); type: biochemical
# T2 construct: made in house; host or cells: E. coli BL21(DE3)
# Description: For Vim-2 metallo β-lactamase, the procedure was identical with the following exceptions, first the protein was not pH adjusted to pH 5 with 50 mM sodium acetate, second, the chromatography step was changed to a 5 ml Q sepharose anion exchange column pre-equilibrated with 50 mM Hepes pH 7.5, and elution of the protein was achieved by a linear gradient of NaCl (0-600 mM). Finally, the VIM-2 purification required a second run (3rd step) on the Q sepharose anion exchange column to achieve acceptable purity (>90%).
# as §4, §5
# [4] = tested on: E. coli expressing the Class A Extended Spectrum Beta-Lactamase (ESBL) CTX-M-15; assay: Broth microdilution MIC assay with ceftazidime, E. coli CTX-M-15; type: cell-based; conditions: Fixed CAZ (ceftazidime) 4 μg/mL; E. coli ESBL4 CTX-M-15
# Text: as §1, §2
# [5] = biological target: OXA-48 (UniProt Q6XEC0); assay: β-lactamase enzyme inhibition assay, Class D oxacillinase; type: biochemical; conditions: read-out: OXA-48
# [6] = tested on: K. pneumoniae expressing the class A carbapenemase KPC-2 and the class B carbapenemase VIM-4; assay: Broth microdilution MIC assay with meropenem, K. pneumoniae KPC-2 and VIM-4; type: cell-based; conditions: for MIC (μg/mL) of Exemplary Compounds in presence of fixed β-lactams: K. p. A-1797 KPC-2 VIM-4: Fixed Mero (meropenem) 4 μg/mL
# Text: as §1, §2
# [7] = biological target: T3, KPC-2 (Klebsiella pneumoniae, UniProt Q9F663); assay: β-lactamase enzyme inhibition assay, KPC-2 (imipenem substrate); type: biochemical
# T3 construct: made in house; host or cells: E. coli BL21(DE3)
# T3 sequence (Q9F663 25-293, looked up): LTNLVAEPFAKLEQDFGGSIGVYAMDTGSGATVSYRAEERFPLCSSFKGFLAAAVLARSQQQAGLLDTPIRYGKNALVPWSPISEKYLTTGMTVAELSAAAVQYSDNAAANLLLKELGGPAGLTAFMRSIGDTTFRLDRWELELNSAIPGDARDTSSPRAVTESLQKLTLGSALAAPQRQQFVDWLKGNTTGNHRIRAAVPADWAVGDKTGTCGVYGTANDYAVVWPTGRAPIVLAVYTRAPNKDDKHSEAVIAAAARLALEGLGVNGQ
# Description: as §3, §4, §5
# [8] = tested on: K. pneumoniae producing the Class D carbapenemase OXA-48; assay: Broth microdilution MIC assay with meropenem, K. pneumoniae OXA-48; type: cell-based; conditions: for MIC (μg/mL) of Exemplary Compounds in presence of fixed β-lactams: K. p. 11978 OXA-48: Fixed Mero (meropenem) 4 μg/mL
# Text: as §1, §2
# [9] = biological target: T4, AmpC (Enterobacter cloacae, UniProt P05364); assay: β-lactamase enzyme inhibition assay, p99 AmpC (nitrocefin substrate); type: biochemical
# T4 construct: made in house; host or cells: E. coli BL21(DE3)
# T4 sequence (P05364 21-381): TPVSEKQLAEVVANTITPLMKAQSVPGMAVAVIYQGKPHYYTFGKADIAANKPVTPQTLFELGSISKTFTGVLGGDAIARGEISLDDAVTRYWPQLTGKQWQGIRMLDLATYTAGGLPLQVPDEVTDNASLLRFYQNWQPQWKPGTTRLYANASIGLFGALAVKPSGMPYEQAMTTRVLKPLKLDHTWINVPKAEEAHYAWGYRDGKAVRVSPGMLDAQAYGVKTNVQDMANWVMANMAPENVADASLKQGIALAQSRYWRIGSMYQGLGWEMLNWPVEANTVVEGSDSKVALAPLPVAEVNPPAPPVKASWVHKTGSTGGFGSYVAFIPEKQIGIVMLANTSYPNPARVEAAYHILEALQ
# Description: as §3, §4, §5
# [10] = tested on: P. aeruginosa expressing the Class B carbapenemase VIM-2; assay: Broth microdilution MIC assay with meropenem, P. aeruginosa VIM-2; type: cell-based; conditions: for MIC (μg/mL) of Exemplary Compounds in presence of fixed β-lactams: P. aerug. 2775 VIM-2: Fixed Mero (meropenem) 4 μg/mL
# Text: as §1, §2
# [11] = Class B, nitrocefin substrate, 486 nm, read-out: VIM-2
# [12] = Class A, imipenem substrate, 300 nm, read-out: KPC-2
# [13] = Klebsiella pneumoniae, read-out: MIC alone
Compound,MIC (μg/mL) of Exemplary Compounds in presence of fixed β-lactams: K. p. 156319 KPC-3 [1],IC50 [2] [nM],IC50 [3] [nM],MIC (μg/mL) of Exemplary Compounds in presence of fixed β-lactams: E. coli ESBL4 CTX-M-15 [4],IC50 [5] [nM],MIC (μg/mL) of Exemplary Compounds in presence of fixed β-lactams: K. p. A-1797 KPC-2 VIM-4 [6],IC50 [7] [nM],MIC (μg/mL) of Exemplary Compounds in presence of fixed β-lactams: K. p. 11978 OXA-48 [8],IC50 [9] [nM],"IC50 [3, 11] [nM]",MIC (μg/mL) of Exemplary Compounds in presence of fixed β-lactams: P. aerug. 2775 VIM-2 [10],"IC50 [7, 12] [nM]","MIC [1, 13] [µg/mL]","MIC ([10]; Pseudomonas aeruginosa, read-out: MIC alone) [µg/mL]","MIC [6, 13] [µg/mL]","MIC [8, 13] [µg/mL]"
"C[Si](C)(C)c1cn(CC(=O)N[C@H]2Cc3cccc(C(=O)O)c3OB2O)nn1 [Example 9, (R)-2-hydroxy-3-(2-(4-(trimethylsilyl)-1H-1,2,3-triazol-1-yl)acetamido)-3,4-dihydro-2H-benzo[e][1,2]oxaborinine-8-carboxylic acid]",A (A represents an MIC>16 μg/mL),< 100,1000 to 10000,B (B represents an MIC between 1 and 16 μg/mL inclusive),100 to 1000,A (A represents an MIC>16 μg/mL),< 100,A (A represents an MIC>16 μg/mL),< 100,–,–,–,–,–,–,–
"O=C(Cn1cc(CCO)nn1)N[C@H]1Cc2cccc(C(=O)O)c2OB1O [Example 5, (R)-2-hydroxy-3-(2-(4-(2-hydroxyethyl)-11,2,3-triazol-1-yl)acetamido)-3,4-dihydro-2H-benzo[e][1,2]oxaborinine-8-carboxylic acid]",B (B represents an MIC between 1 and 16 μg/mL inclusive),< 100,–,C (C represents an MIC of <1 μg/mL),100 to 1000,B (B represents an MIC between 1 and 16 μg/mL inclusive),–,B (B represents an MIC between 1 and 16 μg/mL inclusive),< 100,10000 to 100000,B (B represents an MIC between 1 and 16 μg/mL inclusive),< 100,–,–,–,–
"NCCCc1c(CN)nnn1CC(=O)N[C@H]1Cc2cccc(C(=O)O)c2OB1O [Example 110, (R)-3-(2-(4-(aminomethyl)-5-(3-aminopropyl)-1H-1,2,3-triazol-1-yl)acetamido)-2-hydroxy-3,4-dihydro-2H-benzo[e][1,2]oxaborinine-8-carboxylic acid]",C (C represents an MIC of <1 μg/mL),1000 to 10000,–,C (C represents an MIC of <1 μg/mL),100 to 1000,C (C represents an MIC of <1 μg/mL),–,B (B represents an MIC between 1 and 16 μg/mL inclusive),100 to 1000,< 100,C (C represents an MIC of <1 μg/mL),100 to 1000,–,–,–,–
"NCC#Cc1c(CN)nnn1CC(=O)N[C@H]1Cc2cccc(C(=O)O)c2OB1O [Example 109, (R)-3-(2-(4-(aminomethyl)-5-(3-aminoprop-1-yn-1-yl)-1H-1,2,3-triazol-1-yl)acetamido)-2-hydroxy-3,4-dihydro-2H-benzo[e][1,2]oxaborinine-8-carboxylic acid]",B (B represents an MIC between 1 and 16 μg/mL inclusive),100 to 1000,–,C (C represents an MIC of <1 μg/mL),< 100,C (C represents an MIC of <1 μg/mL),–,B (B represents an MIC between 1 and 16 μg/mL inclusive),100 to 1000,< 100,C (C represents an MIC of <1 μg/mL),100 to 1000,–,–,–,–
"C[C@@H](O)[C@H]1C(=O)N2C(C(=O)O)=C(S[C@@H]3CN[C@H](C(=O)N(C)C)C3)[C@H](C)[C@H]12 [Meropenem, meropenem, reference compound]",–,–,–,–,–,–,–,–,–,–,–,–,> 128,16,64,128
"CCOC(=O)c1nnn(CC(=O)N[C@H]2Cc3cccc(C(=O)O)c3OB2O)c1C(=O)OCC [Example 11, (R)-3-(2-(4,5-bis(ethoxycarbonyl)-1H-1,2,3-triazol-1-yl)acetamido)-2-hydroxy-3,4-dihydro-2H-benzo[e][1,2]oxaborinine-8-carboxylic acid]",B (B represents an MIC between 1 and 16 μg/mL inclusive),< 100,–,B (B represents an MIC between 1 and 16 μg/mL inclusive),< 100,B (B represents an MIC between 1 and 16 μg/mL inclusive),–,A (A represents an MIC>16 μg/mL),< 100,1000 to 10000,–,< 100,–,–,–,–

# Reference: patent US11046716B2, “Beta-lactamase inhibitors” (priority 2015, dated 2021)
